Source: US12714706B2, “Methods of treating small cell lung cancer with lurbinectedin formulations” (PHARMA MAR, S.A., priority 2019, dated 2026)
≈ marks a conversion by molar mass, not a printed value. Like-named read-outs stand apart in the source and are kept apart here.

Legend:
SCLC = test: Phase 2 trial of lurbinectedin monotherapy in SCLC: antitumor activity (ORR, DOR, PFS, OS; RECIST v1.1); assay type: in vivo, human
[1] = Maximum solubility of lurbinectedin in different molarities of lactic acid; assay type: physicochemical; settings: lactic acid solution, aqueous buffer
Method: As such, in embodiments, a concentrated lurbinectedin solution is prepared in organic acid before addition of other excipients. In preferred embodiments, the organic acid has a pH less than 4, preferably less than 3.5, more preferably less than 3, or around 3. The maximum solubility of lurbinectedin was investigated in different molarities of the organic acid lactic acid. […] In a preferred embodiment, lurbinectedin is dissolved in an organic acid with a molarity of around 0.1M to 0.5M, preferably around 0.2M to 0.4M, more preferably around 0.3M organic acid. An exemplary molarity is 0.31M organic acid.

SCLC patients = test: Phase 2 trial of lurbinectedin monotherapy in SCLC: safety evaluation (NCI-CTCAE v4); assay type: in vivo, human
Method: Patients were evaluated for safety if they had received any partial or complete infusion of lurbinectedin. All adverse events were graded according to the National Cancer Institute-Common Toxicity Criteria for Adverse Events (NCI-CTCAE, v4). The safety profile of patients was monitored throughout the treatment and up to 30 days after the last lurbinectedin infusion (end of treatment), or until the patient started a new anti-tumor therapy or until the date of death, whichever occurred first. Treatment delays, dose reduction requirements, transfusions, and reason for treatment discontinuation was monitored throughout the study. Any treatment-related adverse events were followed until recovery to at least grade 1 or stabilization of symptoms or until the start of a new anti-tumor therapy, whichever occurred first.

[2] = Sodium acetate pH 3, 25°C/60% RH
[3] = Sodium acetate pH 3, 14 d 25°C/60% RH
[4] = Sodium acetate pH 4, 25°C/60% RH
[5] = Sodium acetate pH 4, 14 d 25°C/60% RH
[6] = Sodium acetate pH 5, 25°C/60% RH
[7] = Sodium acetate pH 5, 14 d 25°C/60% RH
[8] = Sodium citrate pH 3, 25°C/60% RH
[9] = Sodium citrate pH 3, 14 d 25°C/60% RH
[10] = Sodium citrate pH 4, 25°C/60% RH
[11] = Sodium citrate pH 4, 14 d 25°C/60% RH
[12] = Sodium citrate pH 5, 25°C/60% RH
[13] = Sodium citrate pH 5, 14 d 25°C/60% RH
[14] = Sodium lactate pH 3, 25°C/60% RH
[15] = Sodium lactate pH 3, 14 d 25°C/60% RH
[16] = Sodium lactate pH 4, 25°C/60% RH
[17] = Sodium lactate pH 4, 14 d 25°C/60% RH
[18] = Sodium lactate pH 5, 25°C/60% RH
[19] = Sodium lactate pH 5, 14 d 25°C/60% RH
[20] = Sodium succinate pH 3, 25°C/60% RH
[21] = Sodium succinate pH 3, 14 d 25°C/60% RH
[22] = Sodium succinate pH 4, 25°C/60% RH
[23] = Sodium succinate pH 4, 14 d 25°C/60% RH
[24] = Sodium succinate pH 5, 25°C/60% RH
[25] = Sodium succinate pH 5, 14 d 25°C/60% RH
[26] = chemotherapy-free interval 90 days or longer (sensitive)
[27] = 105 SCLC patients, 3.2 mg/m^2 q3wk
[28] = biochemical abnormality regardless of relation to study drug, patients with laboratory data, NCI-CTCAE v4.0, SCLC
[29] = haematological abnormality regardless of relation to study drug, NCI-CTCAE v4.0, 105 treated SCLC patients
[30] = treatment-related adverse event, NCI-CTCAE v4.0, 105 treated SCLC patients

**Q.** Which results are given for `COc1ccc2[nH]c3c(c2c1)CCN[C@]31CS[C@@H]2c3c(OC(C)=O)c(C)c4c(c3[C@H](COC1=O)N1[C@@H]2[C@H]2c3c(cc(C)c(OC)c3O)C[C@@H]([C@@H]1O)N2C)OCO4` [lurbinectedin, Lurbinectedin]?
**A.** Concentration t = 0 h (Sodium acetate pH 3): 950 µg/mL; Purity t = 0 h (Sodium acetate pH 3): 99.2%; Concentration t = 14 d [2]: 880 µg/mL; Purity t = 14 d [2]: 98.0%; Concentration decrease [3]: 6.8%; Degradation [3]: 1.2%; Concentration t = 0 h (Sodium acetate pH 4): 940 µg/mL; Purity t = 0 h (Sodium acetate pH 4): 99.2%; Concentration t = 14 d [4]: 890 µg/mL; Purity t = 14 d [4]: 98.0%; Concentration decrease [5]: 5.7%; Degradation [5]: 1.2%; Concentration t = 0 h (Sodium acetate pH 5): 30 µg/mL; Purity t = 0 h (Sodium acetate pH 5): 95.4%; Concentration t = 14 d [6]: 30 µg/mL; Purity t = 14 d [6]: 93.7%; Concentration decrease [7]: 8.2%; Degradation [7]: 1.7%; Concentration t = 0 h (Sodium citrate pH 3): 940 µg/mL; Purity t = 0 h (Sodium citrate pH 3): 99.4%; Concentration t = 14 d [8]: 920 µg/mL; Purity t = 14 d [8]: 97.9%; Concentration decrease [9]: 1.2%; Degradation [9]: 1.6%; Concentration t = 0 h (Sodium citrate pH 4): 930 µg/mL; Purity t = 0 h (Sodium citrate pH 4): 99.4%; Concentration t = 14 d [10]: 880 µg/mL; Purity t = 14 d [10]: 96.2%; Concentration decrease [11]: 6.0%; Degradation [11]: 3.2%; Concentration t = 0 h (Sodium citrate pH 5): 500 µg/mL; Purity t = 0 h (Sodium citrate pH 5): 99.3%; Concentration t = 14 d [12]: 110 µg/mL; Purity t = 14 d [12]: 95.0%; Concentration decrease [13]: 78.5%; Degradation [13]: 4.3%; Concentration t = 0 h (Sodium lactate pH 3): 940 µg/mL; Purity t = 0 h (Sodium lactate pH 3): 99.3%; Concentration t = 14 d [14]: 930 µg/mL; Purity t = 14 d [14]: 98.6%; Concentration decrease [15]: 0.9%; Degradation [15]: 0.7%; Concentration t = 0 h (Sodium lactate pH 4): 900 µg/mL; Purity t = 0 h (Sodium lactate pH 4): 99.3%; Concentration t = 14 d [16]: 870 µg/mL; Purity t = 14 d [16]: 97.8%; Concentration decrease [17]: 3.0%; Degradation [17]: 1.5%; Concentration t = 0 h (Sodium lactate pH 5): 30 µg/mL; Purity t = 0 h (Sodium lactate pH 5): 96.5%; Concentration t = 14 d [18]: 30 µg/mL; Purity t = 14 d [18]: 93.9%; Concentration decrease [19]: 6.9%; Degradation [19]: 2.6%; Concentration t = 0 h (Sodium succinate pH 3): 960 µg/mL; Purity t = 0 h (Sodium succinate pH 3): 99.3%; Concentration t = 14 d [20]: 930 µg/mL; Purity t = 14 d [20]: 97.7%; Concentration decrease [21]: 3.2%; Degradation [21]: 1.5%; Concentration t = 0 h (Sodium succinate pH 4): 970 µg/mL; Purity t = 0 h (Sodium succinate pH 4): 99.2%; Concentration t = 14 d [22]: 890 µg/mL; Purity t = 14 d [22]: 96.8%; Concentration decrease [23]: 7.6%; Degradation [23]: 2.4%; Concentration t = 0 h (Sodium succinate pH 5): 40 µg/mL; Purity t = 0 h (Sodium succinate pH 5): 95.9%; Concentration t = 14 d [24]: 30 µg/mL; Purity t = 14 d [24]: 94.2%; Concentration decrease [25]: 8.1%; Degradation [25]: 1.8%; Overall response rate (CR + PR) (SCLC; IRC assessment, overall (n = 105)): 30.5%; Duration of response, median (SCLC; IRC assessment, resistant disease (CTFI <90 days)): 4.8 months; Overall response rate (CR + PR) (SCLC; IRC assessment, resistant disease (CTFI <90 days, n = 45)): 13.3%; Duration of response, median (SCLC; IRC assessment, sensitive disease (CTFI ≥90 days)): 5.3 months; Overall response rate (CR + PR) (SCLC; IRC assessment, sensitive disease (CTFI ≥90 days, n = 60)): 43.3%; Duration of response, median (SCLC; Investigator assessment, overall): 5.3 months; Duration of response, median (SCLC; Investigator assessment, resistant disease (CTFI <90 days)): 4.7 months; Duration of response, median (SCLC; Investigator assessment, sensitive disease (CTFI ≥90 days)): 6.2 months; Overall response rate (CR + PR) (SCLC; Investigator assessment, sensitive disease (CTFI ≥90 days, n = 60)): 45.0%; Median progression-free survival (SCLC; Investigator-assessed, overall population): 3.5 months; Patients alive at 1 year after the first dose (SCLC; chemotherapy-free interval 90 days or longer (n = 60)): 48%; Median overall survival (SCLC; [26]): 11.9 months; Median progression-free survival (SCLC; [26]): 4.6 months; Median overall survival (SCLC; overall population): 9.3 months; Median overall survival of patients with initial objective response (post-hoc) (SCLC; responders with sensitive disease): 15.8 months; solubility ([1]; 0.05M lactic acid): 7.2 mg/mL (≈ 9.17 mM); solubility ([1]; 0.5M lactic acid): 90.4 mg/mL (≈ 115 mM); Patients with dose delays caused by neutropenia (SCLC patients; 105 SCLC patients): 12%; Patients with dose reductions caused by neutropenia (SCLC patients; 105 SCLC patients): 16%; Patients with dose administration delayed because of treatment-related adverse events (SCLC patients; [27]): 22%; Patients with dose reduced because of treatment-related adverse events (SCLC patients; [27]): 26%; Discontinuation because of treatment-related adverse events (SCLC patients; 105 treated patients): 2%; Drug-induced liver injury (SCLC patients; 105 treated patients): no cases; Grade 3-4 anemia (SCLC patients; 105 treated patients): 9%; Grade 3-4 febrile neutropenia (SCLC patients; 105 treated patients): 5%; Grade 3-4 leukopenia (SCLC patients; 105 treated patients): 29%; Grade 3-4 neutropenia (SCLC patients; 105 treated patients): 46%; Grade 3-4 thrombocytopenia (SCLC patients; 105 treated patients): 7%; Grade 3 pneumonia (SCLC patients; 105 treated patients): 2%; Patients who received G-CSF secondary prophylaxis or therapy for neutropenia (SCLC patients; 105 treated patients): 22%; Serious treatment-related adverse events (SCLC patients; 105 treated patients): 10%; Serious treatment-related febrile neutropenia (SCLC patients; 105 treated patients): 5%; Serious treatment-related neutropenia (SCLC patients; 105 treated patients): 5%; Treatment-related deaths (SCLC patients; 105 treated patients): No treatment-related deaths; Alanine aminotransferase, Grade 4 (SCLC patients; [28]): 0 n (%) of patients; Alkaline phosphatase, Grade 4 (SCLC patients; [28]): 0 n (%) of patients; Aspartate aminotransferase, Grade 4 (SCLC patients; [28]): 0 n (%) of patients; Creatinine, Grade 3 (SCLC patients; [28]): 0 n (%) of patients; Creatinine, Grade 4 (SCLC patients; [28]): 0 n (%) of patients; Anaemia, Grade 1-2 (SCLC patients; [29]): 91 (87%) n (%) of patients; Anaemia, Grade 3 (SCLC patients; [29]): 9 (9%) n (%) of patients; Anaemia, Grade 4 (SCLC patients; [29]): 0 n (%) of patients; Leucopenia, Grade 1-2 (SCLC patients; [29]): 53 (50%) n (%) of patients; Leucopenia, Grade 3 (SCLC patients; [29]): 20 (19%) n (%) of patients; Leucopenia, Grade 4 (SCLC patients; [29]): 10 (10%) n (%) of patients; Neutropenia, Grade 1-2 (SCLC patients; [29]): 27 (26%) n (%) of patients; Neutropenia, Grade 3 (SCLC patients; [29]): 22 (21%) n (%) of patients; Neutropenia, Grade 4 (SCLC patients; [29]): 26 (25%) n (%) of patients; Thrombocytopenia, Grade 1-2 (SCLC patients; [29]): 39 (37%) n (%) of patients; Thrombocytopenia, Grade 3 (SCLC patients; [29]): 3 (3%) n (%) of patients; Thrombocytopenia, Grade 4 (SCLC patients; [29]): 4 (4%) n (%) of patients; Decreased appetite, Grade 1-2 (SCLC patients; [30]): 22 (21%) n (%) of patients; Decreased appetite, Grade 3 (SCLC patients; [30]): 0 n (%) of patients; Decreased appetite, Grade 4 (SCLC patients; [30]): 0 n (%) of patients; Diarrhoea, Grade 1-2 (SCLC patients; [30]): 13 (14%) n (%) of patients; Diarrhoea, Grade 3 (SCLC patients; [30]): 1 (1%) n (%) of patients; Diarrhoea, Grade 4 (SCLC patients; [30]): 0 n (%) of patients; Fatigue, Grade 1-2 (SCLC patients; [30]): 54 (51%) n (%) of patients; Fatigue, Grade 3 (SCLC patients; [30]): 7 (7%) n (%) of patients; Fatigue, Grade 4 (SCLC patients; [30]): 0 n (%) of patients; Febrile neutropenia, Grade 1-2 (SCLC patients; [30]): 0 n (%) of patients; Febrile neutropenia, Grade 3 (SCLC patients; [30]): 2 (2%) n (%) of patients; Febrile neutropenia, Grade 4 (SCLC patients; [30]): 3 (3%) n (%) of patients; Nausea, Grade 1-2 (SCLC patients; [30]): 34 (32%) n (%) of patients; Nausea, Grade 3 (SCLC patients; [30]): 0 n (%) of patients; Nausea, Grade 4 (SCLC patients; [30]): 0 n (%) of patients; Pneumonia, Grade 1-2 (SCLC patients; [30]): 0 n (%) of patients; Pneumonia, Grade 3 (SCLC patients; [30]): 2 (2%) n (%) of patients; Pneumonia, Grade 4 (SCLC patients; [30]): 0 n (%) of patients; Skin ulcer, Grade 1-2 (SCLC patients; [30]): 0 n (%) of patients; Skin ulcer, Grade 3 (SCLC patients; [30]): 1 (1%) n (%) of patients; Skin ulcer, Grade 4 (SCLC patients; [30]): 0 n (%) of patients; Vomiting, Grade 1-2 (SCLC patients; [30]): 19 (18%) n (%) of patients; Vomiting, Grade 3 (SCLC patients; [30]): 0 n (%) of patients; Vomiting, Grade 4 (SCLC patients; [30]): 0 n (%) of patients
